According to US5273974A, “Condensed heterocyclic compounds, their production and use” (priority 1990, dated 1993):
Where a name gives a salt, the structure may show the parent alone.

Target: T1, Acetylcholinesterase (Rattus norvegicus, UniProt P37136)
T1 construct: S1 fraction of a homogenate of male Wistar rat cerebral cortex; from tissue; host or cells: male Wistar rat cerebral cortex, S1 fraction of homogenate
Test: Cholinesterase inhibitory activity assayed with (acetyl-[3H])-acetylcholine (S1 fraction of male Wistar rat cerebral cortex homogenate)
Type: biochemical
Details: (acetyl-[3H])-acetylcholine substrate, 30 minutes incubation
Method: The cholinesterase inhibitory activity of the compound of the present invention was assayed with (acetyl-[3H])-acetylcholine. Thus, using the S1 fraction of a homogenate of male Wistar rat cerebral cortex as the cholinesterase source, (acetyl-[3H])-acetylcholine and the compound of the invention were added as the substrate and the test substance, respectively, and the mixture was incubated for 30 minutes. After the reaction was terminated, a toluene-based scintillant was added and, after shaking, the reaction product [3H]-acetic acid which was transferred to the toluene layer was determined with a scintillation counter to estimate the cholinesterase activity.

T1 sequence (P37136 32-614): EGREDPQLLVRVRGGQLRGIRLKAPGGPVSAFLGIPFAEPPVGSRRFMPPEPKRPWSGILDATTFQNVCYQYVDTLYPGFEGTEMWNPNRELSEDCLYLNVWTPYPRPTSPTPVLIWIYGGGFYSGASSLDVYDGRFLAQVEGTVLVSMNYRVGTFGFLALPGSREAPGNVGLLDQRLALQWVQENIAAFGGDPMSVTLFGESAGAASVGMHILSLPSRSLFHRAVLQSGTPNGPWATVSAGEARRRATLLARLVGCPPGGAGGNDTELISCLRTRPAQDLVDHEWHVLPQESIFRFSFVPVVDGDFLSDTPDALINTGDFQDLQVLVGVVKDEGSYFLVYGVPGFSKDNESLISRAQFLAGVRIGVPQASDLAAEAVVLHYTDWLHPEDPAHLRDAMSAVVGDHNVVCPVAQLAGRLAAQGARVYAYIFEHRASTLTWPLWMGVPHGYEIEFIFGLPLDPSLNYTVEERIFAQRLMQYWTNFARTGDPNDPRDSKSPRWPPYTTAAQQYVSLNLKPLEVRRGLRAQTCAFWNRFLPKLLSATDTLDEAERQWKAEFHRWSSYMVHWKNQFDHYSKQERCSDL

Compound `O=C(CCC1CCN(Cc2ccccc2)CC1)c1ccc2c(c1)NCCCC2` [19-16] has an IC50 of 102 nM.
Work on `O=C(CCC1CCN(Cc2ccccc2)CC1)c1ccc2c(c1)CCCN2` [Example 2, 6-[1-Oxo-3-[1-(phenylmethyl)piperidin-4-yl]propyl]-1,2,3,4-tetrahydroquinoline dihydrochloride] yielded an IC50 of 14 nM.
`O=C(CCC1CCN(Cc2ccccc2)CC1)c1ccc2c(c1)CCCN2Cc1ccccc1` [Example 3, 1-(Phenylmethyl)-6-[3-[1-(phenylmethyl)piperidin-4-yl]-1-oxopropyl]-1,2,3,4-tetrahydroquinoline dihydrochloride] showed an IC50 of 120 nM.
In the case of `CN1CCCc2cc(C(=O)CCC3CCN(Cc4ccccc4)CC3)ccc21` [Example 4, 1-Methyl-6-[3-[1-(phenylmethyl)piperidin-4-yl]-1-oxopropyl]-1,2,3,4-tetrahydroquinoline dihydrochloride], the IC50 is reported as 10 nM.
Work on `O=C(CCC1CCN(Cc2ccccc2)CC1)c1ccc2c(c1)CCCN2` [Example 6-A, 6-[1-Oxo-3-[1-(phenylmethyl)piperidin-4-yl]propyl]-1,2,3,4-tetrahydroquinoline fumarate] yielded an IC50 of 54 nM.
With `O=C(CCC1CCN(Cc2ccccc2)CC1)c1ccc2c(c1)NCCC2` [Example 6-B, 7-[1-Oxo-3-[1-(phenylmethyl)piperidin-4-yl]propyl]-1,2,3,4-tetrahydroquinoline fumarate] the IC50 was 54 nM.
Compound `CN1CCCc2cc(C(=O)CCC3CCN(Cc4ccccc4)CC3)ccc21` [Example 8-A, 1-Methyl-6-[1-oxo-3-[1-(phenylmethyl)piperidin-4-yl]-propyl]-1,2,3,4-tetrahydroquinoline fumarate] has an IC50 of 24 nM.
In the case of `CN1CCCc2ccc(C(=O)CCC3CCN(Cc4ccccc4)CC3)cc21` [Example 8-B, 1-methyl-7-[1-oxo-3-[1-(phenylmethyl)piperidin-4-yl]propyl]-1,2,3,4-tetrahydroquinoline fumarate], the IC50 is reported as 36 nM.
`O=C(CCC1CCN(Cc2ccccc2)CC1)c1ccc2c(c1)CCCN2Cc1ccccc1` [Example 10, 1-(Phenylmethyl)-6-[1-oxo-3-[1-(phenylmethyl)piperidin-4-yl]propyl]-1,2,3,4-tetrahydroquinoline fumarate] was tested, and the IC50 was 160 nM.
Compound `O=C(CCC1CCN(Cc2ccccc2)CC1)c1ccc2c(c1)CCN2` [Example 13, 2,3-Dihydro-5-[1-oxo-3-[1-(phenylmethyl)piperidin-4-yl]propyl]-1H-indole fumarate] has an IC50 of 20 nM.
Compound `CN1CCc2cc(C(=O)CCC3CCN(Cc4ccccc4)CC3)ccc21` [Example 14, 2,3-Dihydro-1-methyl-5-[1-oxo-3-[1-(phenylmethyl)-piperidin-4-yl]propyl]-1H-indole fumarate] has an IC50 of 10 nM.
`O=C(CCC1CCN(Cc2ccccc2)CC1)c1ccc2c(c1)CCN2Cc1ccccc1` [Example 15, 2,3-Dihydro-5-[1-oxo-3-[1-(phenylmethyl)piperidin-4-yl]propyl]-1-(phenylmethyl)-1H-indole fumarate] showed an IC50 of 68 nM.
For `CC(=O)N1CCCc2cc(C(=O)CCC3CCN(Cc4ccccc4)CC3)ccc21` [Example 16, 1-Acetyl-6-[1-oxo-3-[1-(phenylmethyl)piperidin-4-yl]propyl]-1,2,3,4-tetrahydroquinoline fumarate], the IC50 was 14 nM.
With `Cc1cccc(CN2CCC(CCC(=O)c3ccc4c(c3)CCN4)CC2)c1` [Example 19-7] the IC50 was 50 nM.
For `O=C(CCC1CCN(Cc2cccc(F)c2)CC1)c1ccc2c(c1)CCN2` [Example 19-8], the IC50 was 16 nM.
Work on `CCN1CCc2cc(C(=O)CCC3CCN(Cc4ccccc4)CC3)ccc21` [Example 19-11] yielded an IC50 of 11 nM.
Compound `CCCN1CCc2cc(C(=O)CCC3CCN(Cc4ccccc4)CC3)ccc21` [Example 19-12] has an IC50 of 22 nM.
In the case of `CCCCN1CCc2cc(C(=O)CCC3CCN(Cc4ccccc4)CC3)ccc21` [Example 19-13], the IC50 is reported as 29 nM.
Compound `CCCCCN1CCc2cc(C(=O)CCC3CCN(Cc4ccccc4)CC3)ccc21` [Example 19-14] has an IC50 of 47 nM.
With `O=C(CCC1CCN(Cc2ccccc2)CC1)c1ccc2c(c1)CCN2CCc1ccccc1` [Example 19-15] the IC50 was 28 nM.
`CN1CCCCc2ccc(C(=O)CCC3CCN(Cc4ccccc4)CC3)cc21` [Example 19-17] gave an IC50 of 81 nM.
Work on `O=C(CCC1CCN(Cc2ccccc2)CC1)c1ccc2c(c1)CCCCN2` [Example 19-20] yielded an IC50 of 125 nM.
In the case of `O=C(CCC1CCN(Cc2cccc(F)c2)CC1)c1ccc2c(c1)NCCCC2` [Example 19-21], the IC50 is reported as 145 nM.
Work on `O=C(CCC1CCN(Cc2ccccc2)CC1)c1ccc2c(c1)CCO2` [Example 21, 2,3-Dihydro-5-[1-oxo-3-[1-(phenylmethyl)piperidin-4-yl]propyl]benzofuran hydrochloride] yielded an IC50 of 28 nM.
`O=C(CCC1CCN(Cc2ccccc2)CC1)c1ccc2c(c1)CCNCC2` [Example 22, 7-[1-Oxo-3-[1-(phenylmethyl)piperidin-4-yl]propyl]-2,3,4,5-tetrahydro-1H-3-benzazepine dihydrochloride] gave an IC50 of 7.6 nM.
`CN1CCc2ccc(C(=O)CCC3CCN(Cc4ccccc4)CC3)cc2CC1` [Example 23, 3-Methyl-7-[1-oxo-3-[1-(phenylmethyl)piperidin-4-yl]-propyl-2,3,4,5-tetrahydro-1H-3-benzazepinedihydrochloride] showed an IC50 of 6.5 nM.
With `O=C(CCC1CCN(Cc2ccccc2)CC1)c1ccc2c(c1)NCC2` [Example 25, 2,3-Dihydro-6-[1-oxo-3-[1-(phenylmethyl)piperidin-4-yl]propyl]-1H-indole fumarate] the IC50 was 113 nM.
`O=C(CCC1CCN(Cc2ccccc2)CC1)c1ccc2c(c1)NCCCCC2` [Example 27, 9-[1-Oxo-3-[1-(phenylmethyl)piperidin-4-yl]propyl]-1,2,3,4,5,6-hexahydro-1-benzazocine fumarate] gave an IC50 of 127 nM.
